Experimental data reported in US8075916B2, “Poly(organophosphazene) hydrogels for drug delivery, preparation method thereof and use thereof” (Korea Institute of Science and Technology, priority 2007, dated 2011).

Experiments:
[1] = system: Stomach cancer cells, SNU-601; experiment: In vivo anti-cancer activity of hydrogel containing paclitaxel in nude mouse tumour model; conditions: 60 mg/kg, day 10 after administration, ten mice per group
Protocol: A nude mouse (Oriental Bio, Balb/C, female of 5-weeks old, 20 g) was used as an animal model for animal experimentation for an in vivo test. Stomach cancer cells, SNU-601 (1×10^7 cells, 0.2 ml, Korean Cell Line Bank), were injected into the dorsum of the mouse. […] 0.2 ml of the solution was injected into the cancer cells, and the change in the size of the cells was measured. […] Each test was conducted for ten (10) mice for each of the control groups and the experimental groups.

[2] = pH 7.4
Protocol: The solutions were put into a chamber of a Brookfield DV-III+ Rheometer equipped with a thermostatic bath (TC-501). The sol-gel phase transition was observed while raising the temperature at the rate of 0.04° C./min and a shear rate of 0.1 to 1.7 per second.
(temperature)” means the temperature where the viscosity of the polymer solution reaches the maximum point, and the term “Max. gel solidity” means the maximum viscosity of the polymer solution.
Such two polymers with contrary properties were mixed in various mixture ratios, and then their sol-gel phase transition with temperature change was observed.

[3] = biological target: T1, albumin (Bovine Serum Albumin; BSA) (Bos taurus, UniProt P02769); experiment: Formation of ionic bond between additives and protein drug (polyacrylamide gel electrophoresis); assay type: binding; conditions: additive 0.02, 0.1, 1 and 2 mg/ml in 0.01% albumin solution
T1 construct: 0.01% albumin solution (Bovine Serum Albumin; BSA, Wako chemical); purchased Wako chemical
T1 sequence (P02769 25-607): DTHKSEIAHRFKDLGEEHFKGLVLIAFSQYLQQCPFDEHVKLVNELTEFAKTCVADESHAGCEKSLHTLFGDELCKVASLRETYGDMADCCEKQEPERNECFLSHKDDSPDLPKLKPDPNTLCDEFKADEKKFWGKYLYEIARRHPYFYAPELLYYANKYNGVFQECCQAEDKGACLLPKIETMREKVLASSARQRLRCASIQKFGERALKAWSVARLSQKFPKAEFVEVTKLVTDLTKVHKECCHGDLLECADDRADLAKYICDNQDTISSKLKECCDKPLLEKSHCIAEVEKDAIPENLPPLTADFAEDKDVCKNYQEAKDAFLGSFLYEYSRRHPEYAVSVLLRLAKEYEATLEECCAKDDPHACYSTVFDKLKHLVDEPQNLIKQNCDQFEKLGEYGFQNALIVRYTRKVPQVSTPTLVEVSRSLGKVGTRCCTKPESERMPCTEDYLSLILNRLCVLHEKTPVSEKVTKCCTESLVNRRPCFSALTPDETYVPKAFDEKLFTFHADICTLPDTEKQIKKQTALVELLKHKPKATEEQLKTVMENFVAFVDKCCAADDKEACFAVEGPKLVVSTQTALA
Protocol: In order to confirm the formation of an ion bond between the additives and drugs, gel electrophoresis was conducted. […] BSA, Wako chemical) at various concentrations (0.02, 0.1, 1 and 2 mg/ml) and sufficiently stirred.

Compound	Max. gelling temp. [2] [°C]	further results
CC(=O)O[C@H]1C(=O)[C@@]2(C)[C@H]([C@H](OC(=O)c3ccccc3)[C@]3(O)C[C@H](OC(=O)[C@H](O)[C@@H](NC(=O)c4ccccc4)c4ccccc4)C(C)=C1C3(C)C)[C@]1(OC(C)=O)CO[C@@H]1C[C@@H]2O [paclitaxel]		mice died due to toxicity [1]: 8 mice
poly[(isoleucine ethyl ester) (aminomethoxy polyethylene glycol 550)(aminoethylsuccinate)(aminoethylsuccinate ethylene hyaluronic acid)phosphazene] [Example 22]	38	
poly[(isoleucine ethyl ester)(aminomethoxy polyethylene glycol 550)(aminoethylsuccinate)phosphazene] [Example 18]	37	
poly[(isoleucine ethyl-ester)(aminomethoxy polyethylene glycol 550)(glycylleucine)phosphazene] [Example 9]	46	
protamine		ionic bond with albumin: development on polyacrylamide gel [3]: worse development property of the gel as the concentration of the additive is higher
